In US20220298493A1, “INACTIVATION PROCESS FOR VIRUSES” (priority 2019, published 2022):
Where two headings read alike, the source gives them in different places.

System: Chikungunya virus
Details: 200 ppm formaldehyde, 22° C.

C=O [formaldehyde]
reduction of virus titer (TCID50) (after ~9 h): 99%
reduction of virus titer (TCID50) (after ~15 h): 99.9%
